Test results as given in PMC10287566, “Signaling-specific inhibition of the CB1 receptor for cannabis use disorder: phase 1 and phase 2a randomized trials” (Nature Medicine, 2023).
Like-named read-outs stand apart in the source and are kept apart here.

Legend:
rats = assay: Irwin test and body temperature (GLP); format: in vivo; conditions: rats, GLP
Procedure: The study involved four groups of six male Wistar rats weighing between 154.0 g and 185.9 g. […] On study day, animals were first scored by the Irwin standardized observation battery, and body temperature was measured. […] Irwin scores and measurement of body temperature were done again at 1, 3, 6, 8 and 24 h after dose.

THC behavioral effects = assay: Inhibition of THC effects in vivo (summary over behavioral models); parameters: species or system mice, rats and non-human primates
Procedure: Statistical analyses were carried out using GraphPad Prism, Statistica (Statsoft) or SigmaPlot (Systat Software) software. […] When appropriate, significant main effects were analyzed by subsequent multiple paired comparisons or multiple comparisons versus the control group using the appropriate post hoc test (Dunnett, Tukey or Sidak test). Different but similar post hoc tests were used because the experiments were performed by independent research groups that used similar but not identical statistical procedures. […] For non-parametric analysis, a Kruskal–Wallis ANOVA was used, followed, when appropriate, by the Mann–Whitney test for pairwise comparisons. Unless otherwise stated, all the performed statistical tests were two-sided. The ID50 or IC50 was estimated by nonlinear regression using the ‘log(inhibitor) versus response’ equation model with GraphPad Prism software. All results are expressed as mean ± s.e.m. The significance threshold was set at P < 0.05.

CD-1 Swiss male mice = assay: i.v. self-administration of WIN55,212-2 in mice; format: in vivo
Procedure: Before the start of the self-administration sessions, mice were implanted under anesthesia with catheters into the right jugular vein. […] Mice were trained under a fixed ratio 1 (FR1) schedule of reinforcement.
Two-hour daily self-administration sessions were conducted 6 d per week for 18 d. Mice received corn oil vehicle (2 ml kg^–1) orally on days 9 and 10 to be habituated to the oral gavage procedure.

mice [1] = assay: THC-induced impairment of pre-pulse inhibition; format: in vivo
mice [2] = assay: THC-induced decrease in social interaction; format: in vivo
[3] = MAD study, plasma pharmacokinetics; format: in vivo, human; conditions: for Cmax / Tmax / half-life: human, plasma, oral; for Cmax: read-out: Cmax, mean (±SD); for Tmax: read-out: tmax, median (range)
Procedure: Samples were collected at the same timepoints on day 1 and day 7: before dose and 0.5, 1, 1.5, 2, 3, 4, 6, 8 and 12 h after dose. Additional samples were collected on day 2 to day 6 before dose (that is, 24 h from the previous dose) and on days […] (that is, 24, 48, 72, 96, 120, 144, 168, 216 and 264 h after the last dose at day 7).
For both SAD and MAD studies, the PK parameters were calculated using standard non-compartmental methods for those with sufficient plasma concentration data.

volunteers with CUD [4] = assay: Phase 2a study, cannabis self-administration; format: in vivo, human
Procedure: Participants, in groups of 3−4, completed two 5-d inpatient periods (first period ‘A’ and second period ‘B’) separated by a ≥ 14-d outpatient washout. During the two testing periods, participants received AEF0117 or matching placebo in counterbalanced order (two dosing sequences: AEF0117 first or placebo first). Participants took capsules at 9:00 each day and then smoked a controlled amount of cannabis (approximately 67 mg of THC smoked over 6 min) 3.5 h later (12:30). Ratings of the subjective effects of cannabis were done five times after cannabis administration (20 min, 40 min, 60 min, 90 min and 120 min after cannabis) using a VAS (0–100 mm). […] Participants were told that the cannabis strength could vary from day to day and between participants but that the cannabis they each received at 12:30 that day was the strength available for self-administration that day.
On study days 2–5, beginning at 14:30, participants were given the option to self-administer individual puffs of cannabis (up to six puffs per timepoint) every 2 h until 20:30 (maximum of 24 puffs per day). Fifteen minutes before each self-administration opportunity, participants indicated the number of puffs they chose to purchase ($2 per puff), and they would pay for it (using faux money that was then subtracted from their study stipend) before receiving their individual ashtray, cannabis cigarette and lighter.

volunteers with CUD [5] = assay: Phase 2a study, precipitated withdrawal, mood and sleep; format: in vivo, human
Procedure: In addition to general safety assessment of vital signs, clinical chemistry and AEs, symptoms of cannabis withdrawal were assessed by daily measures of food intake, body weight, sleep efficiency[23],[41],[42] and mood[22]. […]
We measured seven subscales of the 44-item VAS (‘Miserable’, ‘Anxious’, ‘Tired’, ‘Confused’, ‘Irritable’, ‘Social’ and ‘Bad effect’). […] Ratings were then done repeatedly (five times at 20, 40, 60, 90 and 120 min after cannabis).

AR (androgen receptor) = assay: Eurofins binding screen; conditions: 10 µM
human CB1 = human CB1 (Homo sapiens, UniProt P21554); assay: [3H]CP55,940 equilibrium binding, HEK293-hCB1 cell membranes; parameters: 3x hemagglutinin (3HA) (N); expressed in transfected cells; membrane preparation; conditions: up to 10 µM
[6] = Self-administration of WIN 55,212-2, mice
[7] = Impairment of pre-pulse inhibition
[8] = Impairment of social interaction
[9] = 0.6 mg/day, MAD Day 1, 0.6 mg/day
[10] = 0.6 mg/day, MAD Day 7, 0.6 mg/day

human CB1, sequence (P21554 whole entry): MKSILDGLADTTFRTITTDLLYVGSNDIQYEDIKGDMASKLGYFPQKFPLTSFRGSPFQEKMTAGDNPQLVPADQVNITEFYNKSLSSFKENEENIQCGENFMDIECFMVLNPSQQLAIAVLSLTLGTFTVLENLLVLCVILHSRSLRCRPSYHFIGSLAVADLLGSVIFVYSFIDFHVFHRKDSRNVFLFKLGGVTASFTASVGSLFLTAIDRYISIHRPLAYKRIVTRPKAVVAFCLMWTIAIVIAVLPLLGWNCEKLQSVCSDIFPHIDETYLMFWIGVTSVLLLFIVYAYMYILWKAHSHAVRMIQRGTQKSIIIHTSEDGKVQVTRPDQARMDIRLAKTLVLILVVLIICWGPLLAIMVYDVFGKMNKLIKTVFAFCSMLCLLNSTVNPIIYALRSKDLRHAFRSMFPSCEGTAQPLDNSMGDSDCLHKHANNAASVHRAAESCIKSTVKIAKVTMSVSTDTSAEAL

SMILES: COc1ccc(CO[C@H]2CC[C@@]3(C)C(=CC[C@H]4[C@@H]5CC[C@H](C(C)=O)[C@@]5(C)CC[C@@H]43)C2)cc1 [AEF0117, 3β-(4-methoxybenzyloxy)pregn-5-en-20-one]
- adverse effects on behavior (Irwin test) and body temperature (rats): did not show any adverse effects
- most observed ID50 for inhibiting the effects of THC (THC behavioral effects; mice and non-human primates, oral): 5 µg/kg
- most observed ID50 for inhibiting the effects of THC (THC behavioral effects; mice, rats and non-human primates): 5 µg/kg
- ID100 for THC effects in fewer cases (THC behavioral effects; oral, 3 h before THC): 1.5 µg/kg
- most frequently observed ID100 for THC effects (THC behavioral effects; oral, 3 h before THC): 15 µg/kg
- % Inhibition (CD-1 Swiss male mice; [6]): 80%
- ID50 (CD-1 Swiss male mice; [6]): 5 µg/kg
- ID100 (CD-1 Swiss male mice; [6]): 15 µg/kg
- i.v. self-administration of WIN55,212-2 (CD-1 Swiss male mice; mice, 15 µg kg^−1 oral): significantly reduced
- THC impairment in sensory motor gating (PPI) (mice [1]): inhibited
- % Inhibition (mice [1]; [7]): 100%
- ID50 (mice [1]; [7]): 4.5 µg/kg
- ID100 (mice [1]; [7]): 15 µg/kg
- THC's effects on social interaction (mice [2]): inhibited
- % Inhibition (mice [2]; [8]): 100%
- ID50 (mice [2]; [8]): 5 µg/kg
- ID100 (mice [2]; [8]): 15 µg/kg
- concentration at 264 h as share of Cmax at Day 7 ([3]; MAD, all doses): 4%
- Cmax [3, 9]: 4.6 ± 1.4 ng/mL
- Tmax [3, 9]: 3 h
- half-life ([3]; 0.6 mg/day, MAD Day 7, 0.6 mg/day, 0-264 h, read-out: t½, min-max): 6.39 to 10.5 days
- Cmax [3, 10]: 3.3 ± 0.3 ng/mL
- Tmax [3, 10]: 3 h
- Cmax ([3]; 2 mg/day, MAD Day 1, 2 mg/day): 11.6 ± 3.7 ng/mL
- Tmax ([3]; 2 mg/day, MAD Day 1, 2 mg/day): 3 h
- half-life ([3]; 2 mg/day, MAD Day 7, 2 mg/day, 0-264 h, read-out: t½, min-max): 6.33 to 10 days
- Cmax ([3]; 2 mg/day, MAD Day 7, 2 mg/day): 14.5 ± 4.9 ng/mL
- Tmax ([3]; 2 mg/day, MAD Day 7, 2 mg/day): 3 h
- Cmax ([3]; 6 mg/day, MAD Day 1, 6 mg/day): 35.9 ± 13.5 ng/mL
- Tmax ([3]; 6 mg/day, MAD Day 1, 6 mg/day): 3.5 h
- half-life ([3]; 6 mg/day, MAD Day 7, 6 mg/day, 0-264 h, read-out: t½, min-max): 6.65 to 10.8 days
- Cmax ([3]; 6 mg/day, MAD Day 7, 6 mg/day): 37.1 ± 7.3 ng/mL
- Tmax ([3]; 6 mg/day, MAD Day 7, 6 mg/day): 2.5 h
- half-life ([3]; humans, MAD study, range between participants, read-out: terminal half-life): 6.33 to 10.8 days
- cannabis self-administration (volunteers with CUD [4]; 1 mg, global crossover analysis): reduced
- number of individuals choosing to self-administer cannabis (volunteers with CUD [4]; Treatment or Treatment x Dose, McNemar's test): no significant effect
- 'Social' subscale rating after smoking cannabis, mean (SEM) (volunteers with CUD [5]; 0.06 mg cohort, Day 1): 66.9 (4.3)
- 'Social' subscale, AEF0117-Placebo (volunteers with CUD [5]; 0.06 mg cohort, Day 1): -5.9
- 'Social' subscale rating after smoking cannabis, mean (SEM) (volunteers with CUD [5]; 0.06 mg cohort, Day 2): 67.4 (5.8)
- 'Social' subscale, AEF0117-Placebo (volunteers with CUD [5]; 0.06 mg cohort, Day 2): -3.1
- 'Social' subscale rating after smoking cannabis, mean (SEM) (volunteers with CUD [5]; 0.06 mg cohort, Day 3): 64.4 (6.0)
- 'Social' subscale, AEF0117-Placebo (volunteers with CUD [5]; 0.06 mg cohort, Day 3): -6.6
- 'Social' subscale rating after smoking cannabis, mean (SEM) (volunteers with CUD [5]; 0.06 mg cohort, Day 4): 63.9 (5.6)
- 'Social' subscale, AEF0117-Placebo (volunteers with CUD [5]; 0.06 mg cohort, Day 4): -7.8
- 'Social' subscale rating after smoking cannabis, mean (SEM) (volunteers with CUD [5]; 0.06 mg cohort, Day 5): 64.0 (5.8)
- 'Social' subscale, AEF0117-Placebo (volunteers with CUD [5]; 0.06 mg cohort, Day 5): -6.0
- 'Social' subscale rating after smoking cannabis, mean (SEM) (volunteers with CUD [5]; 1 mg cohort, Day 1): 71.9 (5.5)
- 'Social' subscale, AEF0117-Placebo (volunteers with CUD [5]; 1 mg cohort, Day 1): 3.9
- 'Social' subscale rating after smoking cannabis, mean (SEM) (volunteers with CUD [5]; 1 mg cohort, Day 2): 71.4 (5.2)
- 'Social' subscale, AEF0117-Placebo (volunteers with CUD [5]; 1 mg cohort, Day 2): 1.3
- 'Social' subscale rating after smoking cannabis, mean (SEM) (volunteers with CUD [5]; 1 mg cohort, Day 3): 71.1 (5.6)
- 'Social' subscale, AEF0117-Placebo (volunteers with CUD [5]; 1 mg cohort, Day 3): 0.1
- 'Social' subscale rating after smoking cannabis, mean (SEM) (volunteers with CUD [5]; 1 mg cohort, Day 4): 67.0 (5.9)
- 'Social' subscale, AEF0117-Placebo (volunteers with CUD [5]; 1 mg cohort, Day 4): -6.0
- 'Social' subscale rating after smoking cannabis, mean (SEM) (volunteers with CUD [5]; 1 mg cohort, Day 5): 69.5 (6.6)
- 'Social' subscale, AEF0117-Placebo (volunteers with CUD [5]; 1 mg cohort, Day 5): -1.6
- difference between AEF0117 and placebo on the 'Social' subscale (volunteers with CUD [5]; 100-mm scale, after cannabis): < 8 mm
- precipitation of cannabis withdrawal (volunteers with CUD [5]; Phase 2a, 0.06 and 1 mg): little to suggest that AEF0117 precipitated cannabis withdrawal
- 'Irritable' subscale, effect of treatment (volunteers with CUD [5]; Treatment x Day x Time, before cannabis): small but significant effect
- Percent inhibition of control specific binding (AR (androgen receptor)): 20%
- effect on equilibrium binding of [3H]CP55,940 (human CB1): does not modify
